Results reported in patent publication US10272055B2, “Therapeutic compounds and methods” (Regents of the University of Minnesota, priority 2014, dated 2019).
“And” between values parts separate entries of the source, which are not always exact repeats. Equal entries are not always repeated. “Also recorded” adds a separate entry of the source.

Legend:
[1] = test system: breast cancer cells and primary cells; test: OCR and ECAR, XF Extracellular Flux Analyzer; format: cell-based; conditions: HBB 20 uM or 40 uM vs DMSO
Experimental: Measuring glycolysis and oxidative metabolism. Cells were maintained in growth medium consisting of 10% FBS, at 37° C. with 5% CO2 and seeded at 100,000 cells per well in XF24-well cell culture microplates (for primary cells HUVEC and HDMVEC, plates were pre-coated with 0.2% college before seeding). Concentrated stocks of HBB was prepared in DMSO. HBB was diluted to 10× working concentration in XF assay medium (a non-buffered medium including 2 mM of L-glutamine but no sodium bicarbonate (buffering agent), glucose, or sodium pyruvate).
Before analysis, the cells were switched from culture medium to XF assay medium. Following baseline measurements, 75 μl of HBB prepared in assay medium was injected into each well to reach final working concentrations. Following the addition of HBB, OCR and ECAR were measured at fixed time interval.
Cells were maintained in growth medium consisting of 10% FBS, at 37° C. with 5% CO2 and seeded at 100,000 cells per well in XF24-well cell culture microplates (for HUVEC, plates were pre-coated with 0.2% college before seeding). Before analysis, the cells were switched from culture medium to XF assay medium. Following baseline measurements, 75 μl of HBB prepared in assay medium was injected into each well to reach final working concentrations. Following the addition of HBB, OCR and ECAR were measured at fixed interval. […]

CYP3A4 epoxygenase = CYP3A4 epoxygenase (Homo sapiens, UniProt P08684); test: CYP3A4 Supersome epoxygenase assay: EET synthesis from arachidonic acid, LC-ESI-MS/MS
Sequence of CYP3A4 epoxygenase (P08684 whole entry): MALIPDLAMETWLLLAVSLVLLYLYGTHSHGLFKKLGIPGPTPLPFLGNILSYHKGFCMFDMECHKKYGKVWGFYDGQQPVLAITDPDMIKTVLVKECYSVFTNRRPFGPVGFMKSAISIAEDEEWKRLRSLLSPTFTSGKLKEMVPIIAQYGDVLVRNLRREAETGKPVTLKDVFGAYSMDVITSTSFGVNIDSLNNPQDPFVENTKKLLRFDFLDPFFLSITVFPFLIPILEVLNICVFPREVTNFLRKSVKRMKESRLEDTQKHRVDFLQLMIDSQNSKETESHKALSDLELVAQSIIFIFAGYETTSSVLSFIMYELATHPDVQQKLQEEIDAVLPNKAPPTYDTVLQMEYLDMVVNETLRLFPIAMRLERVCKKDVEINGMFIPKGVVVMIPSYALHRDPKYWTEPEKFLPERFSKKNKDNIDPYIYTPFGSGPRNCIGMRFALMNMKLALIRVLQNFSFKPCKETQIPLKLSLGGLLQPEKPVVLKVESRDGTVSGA
Experimental: Measurements are reported as percentage of control reactions performed with vehicle but no compound. A ^13C-EET recovery standard was used to control for recovery of EETs from extractions. […] EET measurements in these Supersome experiments are expressed as percentage of control reactions. Absolute EET measurements are determined by subtraction of regioisomer values in a baseline reaction lacking NADPH. Measurements were performed in triplicate and values are expressed as the mean±SD.
After the reaction, EETs were then extracted with 1 mL dichloromethane and reconstituted in methanol and analyzed by LC-ESI-MS/MS.

CYP3A4 nanodiscs = CYP3A4 nanodiscs (Homo sapiens, UniProt P08684); test: CYP3A4 nanodisc spin shift titration; format: binding; conditions: vs metformin
Sequence of CYP3A4 nanodiscs (P08684 whole entry): as above

MDA-MB-231 line = test: 14,15-EET protection against biguanide growth inhibition, MTT, MDA-MB-231; format: cell-based; conditions: MDA-MB-231, 1 uM 14,15-EET, 24 hours
Experimental: Cells were plated in complete media in the presence of serum (10% FBS) and cultured at 37° C. with 5% CO2 and treated with HBB for 24 hours in the presence and absence of 1 uM 14,15-EET. Growth was then measured at 24 hours by MTT assay.
Results are expressed as mean±standard deviation (n=8).

MCF7 = test: Cell cycle analysis by flow cytometry, MCF7; format: cell-based; conditions: MCF7, HBB 20 uM, 6 hours
Experimental: Cells in log phase growth treated with HBB (20 uM) or DMSO for 6 hours were trypsinized and fixed in 70% ethanol at 4° C. overnight. The cells were washed with cold PBS and resuspended in Nicoletti buffer (50 μg/ml propidium iodide, 0.1% Triton X-100, 0.1% sodium citrate, pH 7.4, and 1 mg/ml RNase). The samples were then analyzed by flow cytometry (BD Biosciences), and data were analyzed using FlowJo software (Tree Star). Representative profile are shown.

[2] = HBB concentration after ip administration, MCF-7 model; set-up: species or system mice; conditions: nude, mouse, in vivo, intraperitoneal, 4 mg/kg/day ip, read-out: Concentration of HBB 1 hour following ip administration
Experimental: Concentration of HBB 1 hour following ip administration was 0.527 uM as measured in the MCF-7 model. HBB was administered ip at 4 mg/kg/day in both models, which is the MTD for that dose, route and schedule.

CYP3A4D3-24 = CYP3A4D3-24 (Homo sapiens, UniProt P08684); test: Spectral binding (spin shift) to CYP3A4D3-24; conditions: vs metformin
Sequence of CYP3A4D3-24 (P08684 with tags, fused parts or gaps): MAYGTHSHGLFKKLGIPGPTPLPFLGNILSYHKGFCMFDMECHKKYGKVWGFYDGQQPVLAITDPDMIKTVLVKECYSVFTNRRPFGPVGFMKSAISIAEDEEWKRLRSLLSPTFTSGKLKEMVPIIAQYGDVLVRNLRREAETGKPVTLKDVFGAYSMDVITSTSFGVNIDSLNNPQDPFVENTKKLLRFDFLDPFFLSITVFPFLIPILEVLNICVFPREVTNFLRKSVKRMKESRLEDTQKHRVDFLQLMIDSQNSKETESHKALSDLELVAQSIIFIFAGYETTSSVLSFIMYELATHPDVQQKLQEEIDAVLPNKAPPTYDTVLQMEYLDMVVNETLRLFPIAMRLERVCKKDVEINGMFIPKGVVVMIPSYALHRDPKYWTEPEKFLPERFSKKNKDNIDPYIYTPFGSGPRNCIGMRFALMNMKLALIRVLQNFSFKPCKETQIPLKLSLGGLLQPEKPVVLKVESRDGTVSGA

MCF-7 cell line = test: MTT growth assay, MCF-7 line; format: cell-based
Experimental: The growth of the MCF-7 line was measured by MTT assay at 24 hours. Cells were plated in complete media in the presence of serum (10% FBS) and cultured at 37° C. with 5% CO2 and treated with the biguanide or DMSO vehicle. Growth was measured at 24 hours by MTT assay.
Cells were plated in complete media in the presence of serum (10% FBS) and cultured at 37° C. with 5% CO2 and treated with HBB or DMSO vehicle. Growth was measured at 24 hours by MTT assay.

CD31 = test: Angiogenesis by CD31 staining, MCF-7 xenograft tumors; format: in vivo, mice; conditions: MCF-7 model, HBB 4 mg/kg/day ip vs PBS
Experimental: Xenogaft tumors from the MCF-7 and MDA-MB-231 models were tested for inhibition of angiogenesis by HBB using CD31 staining.
The samples were cryosectioned at 6 um and fixed with chilled 100% acetone for 10 minutes. Samples were blocked with 3% donkey serum in PBS for 30 minutes at 37 C.
The antibody used to stain CD-31 was from BD Pharmingen PE Rat anti Mouse CD31, catalog number 553373. It was used at a dilution of 1:50 in blocking buffer for 1 hour at 37 C.
The samples were then stained for 10 minutes with DAPI at a concentration of 1:2000, from Life Technologies, catalog number D1306.
Each sample was imaged in 4-5 areas. There were 3 samples per condition, PBS vs HBB.

## CCCCCCNC(=N)NC(=N)NCc1ccccc1 [HBB, N1-hexyl-N5-benzyl biguanide]
[1]
  extracellular acidification rate (ECAR): inhibits both OCR and ECAR
  oxygen consumption rate (OCR): inhibits oxygen consumption rate (OCR); also recorded: inhibits both OCR and ECAR
CYP3A4 epoxygenase; IC50, inhibition of CYP3A4 epoxygenase
  IC50: 110 µM
CYP3A4 epoxygenase; vs metformin
  fold more potent than metformin, CYP3A4 epoxygenase: 50 fold and ~40 fold
CYP3A4 nanodiscs
  fold more potent than metformin, CYP3A4 nanodisc spin shift: ~4 fold
MDA-MB-231 line
  rescue of MDA-MB-231 growth by 14,15-EET in the presence of the biguanide: no protection
MCF7
  cell cycle arrest: induces G0/G1 and G2/M cell cycle arrest
[2]
  concentration at 1 h: 527 nM
CYP3A4D3-24
  fold more potent than metformin, delta 3-24 CYP3A4 spin shift: ~12 fold
MCF-7 cell line; MTT assay at 24 hours, 10% FBS, read-out: IC50, MCF-7 growth
  IC50: ~20 µM and 20 µM
MCF-7 cell line; vs metformin
  fold more potent than metformin, MCF-7 growth: ~250 fold
CD31
  angiogenesis (CD31 staining): inhibited angiogenesis in both models
